Reference: US8022091B2, “Triazole derivative” (Taisho Pharmaceutical Co., Ltd., priority 2006, dated 2011)

How the values were obtained:
human Edg-1 (S1P1) = target: T1, human Edg-1 (S1P1) (Homo sapiens, UniProt P21453); assay: S1P1 binding assay: inhibition of [33P]-S1P binding to membrane fraction of HEK-293 cells transferred with the human Edg-1 (S1P1) gene; details: for IC50: [33P]-S1P 0.1 nM, human Edg-1 (S1P1) HEK-293 membrane fraction, 1 h at 30° C., read-out: IC50 (concentration at which binding in the absence of the test compound was inhibited by 50%)
T1 construct: expressed in transfected cells; host or cells: HEK-293
Method in brief: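 Membranes from S1P1-transfected HEK-293 cells incubated 1 h at 30° C in pH 7.4 Tris buffer with fatty acid-free BSA, 0.1 nM [33P]-S1P and test compound (0.1% DMSO). Filter-bound radioactivity was counted; inhibition corrected for binding to untransfected-cell membranes, and IC50 derived from concentration series.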

[1] = test compound at 10 μM, inhibition of [33P]-S1P binding to the membrane fraction of HEK-293 cells expressing human Edg-1 (S1P1)
[2] = test compound 10 μM, inhibition of [33P]-S1P binding, membrane fraction

T1 sequence (P21453 whole entry): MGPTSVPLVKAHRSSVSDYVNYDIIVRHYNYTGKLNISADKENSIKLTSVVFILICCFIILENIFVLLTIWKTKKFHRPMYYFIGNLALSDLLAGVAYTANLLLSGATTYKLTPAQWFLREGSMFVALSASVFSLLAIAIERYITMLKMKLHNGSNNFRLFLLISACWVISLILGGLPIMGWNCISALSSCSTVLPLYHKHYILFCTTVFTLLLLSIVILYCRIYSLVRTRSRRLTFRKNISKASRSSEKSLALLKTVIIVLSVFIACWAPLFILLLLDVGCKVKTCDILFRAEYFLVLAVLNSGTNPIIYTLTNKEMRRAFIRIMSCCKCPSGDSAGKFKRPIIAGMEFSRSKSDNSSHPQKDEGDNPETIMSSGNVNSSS

| Compound | melting point [°C] | IC50 (human Edg-1 (S1P1)) [nM] | inhibition at 10 µM (human Edg-1 (S1P1); [1]) [%] | inhibition at 10 µM (human Edg-1 (S1P1); [2]) [%] | Binding assay (membrane) % inhibition (10 μM) (human Edg-1 (S1P1); test compound 10 μM, inhibition of [33P]-S1P binding, membrane fraction, 10 µM) [%] |
| --- | --- | --- | --- | --- | --- |
| CCn1c(Oc2cccc(N3CCN(C)CC3)c2)nnc1[C@@H](C)NS(=O)(=O)c1cc(F)cc(Cl)c1C [Compound 145] | 150 to 152 | ≤ 35 | 101 |  |  |
| CCn1c(Oc2cccc(N3CCN(C)CC3)c2)nnc1[C@@H](C)NS(=O)(=O)/C=C/c1ccccc1 [Compound 146] | 121 to 122 | 12 | 102 |  |  |
| CCn1c(Oc2cccc(NS(C)(=O)=O)c2)nnc1[C@@H](C)NS(=O)(=O)c1ccc2ccccc2c1 [Compound 147] | 141 to 143 | ≤ 10 | 103 |  |  |
| CCn1c(Oc2cccc(NS(C)(=O)=O)c2)nnc1[C@@H](C)NS(=O)(=O)c1ccc2c(Cl)cccc2c1 [Compound 148] | 154.5 to 155.5 | 1.9 | 102 |  |  |
| CCC(NS(=O)(=O)c1ccc(Cl)c(Cl)c1)c1nnc(Oc2ccc(C)cc2)n1CC (stereo not shown) [Compound 149] | 212 to 214.5 | 7.8 | 101 |  |  |
| CCn1c(Oc2cccc(N3CCN(C(C)C)CC3)c2)nnc1[C@@H](C)NS(=O)(=O)c1ccc2c(Cl)cccc2c1 [Compound 663] | 210 to 217 | ≤ 10 |  | 99.5 |  |
| CCn1c(Oc2cccc(N3CCN(C)CC3)c2)nnc1[C@@H](C)NS(=O)(=O)c1ccc2cc(Cl)ccc2c1 [Compound 664] | 218 to 221.5 |  |  | 85.4 |  |
| CCn1c(Oc2cccc(N3CCN(C)CC3)c2)nnc1[C@@H](C)NS(=O)(=O)c1ccc2cccc(Cl)c2c1 [Compound 666] | 143.5 to 144.5 | ≤ 10 |  | 97.9 |  |
| CCn1c(Oc2cccc(N3CCN(C(C)C)CC3)c2)nnc1[C@@H](C)NS(=O)(=O)c1ccc2cccc(Cl)c2c1 [Compound 669] | 131.5 to 132.5 | ≤ 10 |  | 100 |  |
| CCn1c(Oc2ccc(F)c(N3CCN(C)CC3)c2)nnc1[C@@H](C)NS(=O)(=O)c1ccc(Cl)c(Cl)c1 [Compound 681] | 189 to 189.5 | ≤ 10 |  | 100 |  |
| CCn1c(Oc2ccc(F)cc2)nnc1C(C)(C)NS(=O)(=O)c1ccc(Cl)c(Cl)c1 [Compound 682] | 228 to 228.5 |  |  | 76.6 |  |
| CCn1c(Oc2ccc(F)cc2)nnc1C1(NS(=O)(=O)c2ccc(Cl)c(Cl)c2)CC1 [Compound 685] | 255 to 260 |  |  | 65.1 |  |
| CCn1c(Oc2cccc(N3CCN(C)CC3)c2)nnc1[C@@H](C)NS(=O)(=O)c1ccc2c(I)cccc2c1 [Compound 691] | 180 to 182 | 2.6 |  |  | 98.5 |
| CCn1c(Oc2cccc(N3CCN(C)CC3)c2)nnc1[C@@H](C)NS(=O)(=O)c1ccc2c(C#N)cccc2c1 [Compound 692] | 227 to 229 | 5.1 |  | 98.5 |  |
| CCn1c(Oc2cccc(N3CCN(C)CC3)c2)nnc1[C@@H](C)NS(=O)(=O)c1ccc2c(Cl)ccc(Cl)c2c1 [Compound 694] | 189 to 191 | 2.9 |  | 106 |  |

Second part, the compound after the results:

| melting point [°C] | IC50 (human Edg-1 (S1P1)) [nM] | inhibition at 10 µM (human Edg-1 (S1P1); [1]) [%] | inhibition at 10 µM (human Edg-1 (S1P1); [2]) [%] | Binding assay (membrane) % inhibition (10 μM) (human Edg-1 (S1P1); test compound 10 μM, inhibition of [33P]-S1P binding, membrane fraction, 10 µM) [%] | Compound |
| --- | --- | --- | --- | --- | --- |
| 183 to 184 | ≤ 35 | 98.1 |  |  | CCn1c(Oc2cccc(N3CCN(C)CC3)c2)nnc1[C@@H](C)NS(=O)(=O)c1ccc(C(F)(F)F)cc1 [Compound 142] |
| 144 to 145 | 7.3 | 99.9 |  |  | CCn1c(Oc2cccc(N3CCN(C)CC3)c2)nnc1[C@@H](C)NS(=O)(=O)c1ccc(Cl)c(Cl)c1Cl [Compound 143] |
| 187 to 188 | 7.9 | 99.4 |  |  | CCn1c(Oc2cccc(N3CCN(C)CC3)c2)nnc1[C@@H](C)NS(=O)(=O)c1cc2ccccc2s1 [Compound 144] |
| 197 to 201 | ≤ 35 |  | 100 |  | CCn1c(Oc2cccc(N3CCN(C)CC3)c2)nnc1[C@@H](C)NS(=O)(=O)c1ccc2ccc(Cl)cc2c1 [Compound 665] |
| 207 to 208 | ≤ 10 |  | 99.2 |  | CCn1c(Oc2cccc(N3CCN(C)CC3)c2)nnc1[C@@H](C)NS(=O)(=O)c1ccc2c(Br)cccc2c1 [Compound 667] |
| 214.5 to 218 | 5.2 |  | 101 |  | CCn1c(Oc2ccc3cc[nH]c3c2)nnc1[C@@H](C)NS(=O)(=O)c1ccc2cccc(Cl)c2c1 [Compound 670] |
| 169.5 to 170.5 | 1.4 |  | 100 |  | CCn1c(Oc2ccc(F)c(N3CCN(C)CC3)c2)nnc1[C@@H](C)NS(=O)(=O)c1ccc2c(Cl)cccc2c1 [Compound 680] |
| 175 to 178 | ≤ 10 |  | 100 |  | CCn1c(Oc2cccc(N3CCNCC3)c2)nnc1[C@@H](C)NS(=O)(=O)c1ccc(Cl)c(Cl)c1 [Compound 683, 3,4-Dichloro-N-[(R)-1-[4-ethyl-5-(3-piperazin-1-yl-phenoxy)-4H-[1,2,4]triazol-3-yl]-ethyl]-benzenesulfonamide] |
| 220.5 to 221 |  |  | 92.7 |  | CCn1c(Oc2cccc(N3CCN(C)CC3)c2)nnc1C1(NS(=O)(=O)c2ccc(Cl)c(Cl)c2)CC1 [Compound 686] |
| 192 to 193 | 1.5 |  | 100 |  | CCn1c(Oc2cccc(N3CCNCC3)c2)nnc1[C@@H](C)NS(=O)(=O)c1ccc2c(Cl)cccc2c1 [Compound 688] |
| 198 to 200 | ≤ 10 |  | 102 |  | CCn1c(Oc2cccc(N3CCN(C)CC3)c2)nnc1[C@@H](C)NS(=O)(=O)c1ccc2c(I)cccc2c1 [Compound 690] |
| 158 to 161 |  |  | 97.7 |  | CCn1c(Oc2cccc(N3CCN(C)CC3)c2)nnc1[C@@H](C)NS(=O)(=O)c1ccc2c(S(C)(=O)=O)cccc2c1 [Compound 693] |
